Legend:
Assay type in all cases: in vivo
eicosanoids [1] = test: Eicosanoid profiling by LC-MS/MS, brain hemispheres of mice after sham or traumatic brain injury (TBI); settings: for eicosanoid values in left hemisphere / eicosanoid values in right hemisphere (trends): 5 mk/kg twice daily for 21 days
Experimental: (§1) Eicosanoids were measured by methods of liquid chromatography with tandem mass spectrometry with the use of spiked in deuterated internal standards. Eicosanoids measured included: the 6-keto-PGF1 alpha (6-keto-PGF1a, a hydrolysis product of and proxy for prostacyclin), thromboxane B2 (TXB2, a metabolite/product of and proxy for thromboxane A2), PGD2, PGE2, 15-keto-PGE2 (produced by 15-PGDH degradation of PGE2), tetranor PGE1 (TN-E, a metabolic product produced by beta-oxidation of PGE2), PGJ2, PGF2 alpha (PGF2a), LTB4, 15-HETE, 12-HETE, 8-HETE, 5-HETE, 17-HDHA, 12,13-DiHOME, 14,15-DHET, 11,12-DHET.
FIGS. 4-6 illustrate graphs showing comparisons of eicosanoid values in brain of wild-type male mice who at 8 weeks of age were subjected to sham or actual traumatic brain injury (TBI) delivered by blast wave to the left skull. 24 hours following sham or actual TBI treatment commenced by injection twice daily with either 5 mk/kg (+)-SW033291 or with matched vehicle control as described in Zhang et al. Science. 2015; 348(6240):aaa2340. PMCID: PMC4481126. Treatment continued for 21 days until mice reached 11 weeks of age. Three hours following the last injection, mice were sacrificed. After sacrifice the right or left hemisphere of the brain was dissected, flash frozen, and powdered, and eicosanoids were extracted in organic solvent for analysis. Values were normalized to the wet weight of the companion contralateral brain hemispheres and are recorded as ng eicosanoid per gm wet weight of tissue.

[2] = system: C57/B6 mice exposed to TBI; test: Morris water maze after TBI; settings: for memory / cognitive impairment after TBI (MWM probe): 5 mg/kg twice daily started 24 hours after injury, tested 2 weeks after injury
Experimental: (A) Experimental Timeline: 8 week old C57/B6 mice were exposed to sham-injury or TBI. Twice daily treatment with 5 mg/kg (+)-SW033291 or vehicle was started 24 hours after injury and continued throughout the duration of the experiment. Animals were tested for cognitive performance in the Morris water maze (MWM) 2 weeks after injury. (B) Animals were trained to find the hidden platform in the MWM for 4 consecutive days (4 trials/day), with performance measured as latency to find the hidden platform. […] (C, D) To probe for spatial memory of the learned location of the hidden platform, one day after the final learning day the animals were tested in the same MWM except the platform was removed. Memory was measured as latency to first cross the area where the platform was located and the number of times the animal crossed that area. […] Individual mouse data points are shown on the graph. Data was analyzed using two-way repeated measures ANOVA; * p<0.05, ** p<0.01, *** p<0.001. All data is mean±SEM

[3] = system: C57/B6 mice exposed to TBI; test: Silver staining for axon degeneration after TBI; settings: 3 weeks after TBI, 5 mg/kg twice daily started 24 hours after injury
Experimental: 8 week old C57/B6 mice were exposed to sham-injury or TBI. Twice daily treatment with 5 mg/kg (+)-SW033291, 5 mg/kg (−)-SW033291, or vehicle was started 24 hours after injury and continued throughout the duration of the experiment. Animals were sacrificed by transcardial perfusion 3 weeks after TBI or sham-injury, and fixed brains were processed for silver staining. […] Individual mouse data points are shown on the graph. Data was analyzed using two-way repeated measures ANOVA; * p<0.05, ** p<0.01. All data is mean±SEM.

eicosanoids [4] = test: Eicosanoid profiling by LC-MS/MS, left hippocampus of wild-type and 5×FAD mice; settings: 5 mk/kg twice daily for 4 weeks
Experimental: as §1
FIG. 2 illustrates graphs showing comparison of eicosanoid values in brain of 6 month old male mice that are either wild-type or that are the 5×FAD strain of mice that model Alzheimer's disease. Beginning at 5 months of age both genotypes of mice were injected twice daily with either 5 mk/kg (+)-SW033291 or with matched vehicle control as described in Zhang et al. Science. 2015; 348(6240):aaa2340. PMCID: PMC4481126. Treatment continued twice daily for 4 weeks. Mice were sacrificed at 3 hours following their final injection. After sacrifice the left hippocampus was dissected, flash frozen, and powdered, and eicosanoids were extracted in aqueous buffer for analysis. Protein concentration of the extracts were assayed, and eicosanoid values were recorded as ng eicosanoid per mg protein.

[5] = following TBI, compared to vehicle treated mice
[6] = sham mice, compared to vehicle treated sham mice
[7] = MWM probe test, TBI mice, 5 mg/kg twice daily
[8] = 5×FAD mice, versus vehicle control treated 5×FAD mice

CCCC[S+]([O-])c1sc2nc(-c3cccs3)cc(-c3ccccc3)c2c1N (single isomer, unassigned; (+)) [(+)-SW033291]
left hemisphere values of PGJ2, TN-E, 15-HETE, and 9,10-DiHOME (eicosanoids [1]; TBI treated mice versus sham injury vehicle treated mice): restoration | eicosanoid values in left hemisphere (eicosanoids [1]; [5]): significantly increased PGJ2, TN-E, 15-HETE, 8-HETE, 5-HETE, 9,10-DiHOME, and LTB4 | eicosanoid values in right hemisphere (trends) (eicosanoids [1]; [5]): trends toward decreased PGJ2, and TxB2 | eicosanoid values in left hemisphere (eicosanoids [1]; [6]): significantly decreased PGE2, PGF2a, 6-keto-PGF1a, PGD2, PGJ2, TN-E, TxB2, 15-HETE, 12-HETE, 9,10-DiHOME | eicosanoid values in right hemisphere (trends) (eicosanoids [1]; [6]): a trend toward increased PGE2, 15-keto-PGE2, PGF2a, TN-E, 15-HETE, 12-HETE, 8-HETE, 5-HETE, and LTB4 | average latency to crossing the platform area [2, 7]: significantly increased in the vehicle-treated TBI-injured group compared to all other groups | number of platform crosses [2, 7]: significantly decreased in the vehicle-treated TBI-injured group compared to all other groups | average (escape) latency to find the hidden platform (learning) ([2]; TBI and sham-injured mice, 4-day learning period, 5 mg/kg twice daily): not different between groups | memory / cognitive impairment after TBI (MWM probe) ([2]; TBI mice, 5 mg/kg): TBI-injured animals treated with vehicle showed memory deficits compared to the (+)-SW033291-treated TBI group | memory / cognitive impairment after TBI (MWM probe) ([2]; TBI mice, listed as (+)-SW033921, 5 mg/kg): protects wild type mice from cognitive impairment after TBI | silver staining (axon degeneration) ([3]; 5 mg/kg): reduced silver staining equivalent to sham-injury-vehicle | silver staining (axon degeneration) ([3]; listed as (+)-SW033921, 5 mg/kg): protects wild type mice from axon degeneration after TBI | TXB2 in left hippocampus (eicosanoids [4]; [8]): significant increase in TXB2 | eicosanoid values in left hippocampus (trends) (eicosanoids [4]; [8]): a trend to increased 6-keto-PGF1a, PGD2, PGE2, PGJ2, PGF2a | eicosanoid values in left hippocampus (trends) (eicosanoids [4]; wild-type mice, versus vehicle treated mice): trends for increases in 6-keto-PGF1a, PGD2, PGE2, PGF2a, and 9,10-DiHOME
